Where two headings read alike, the source gives them in different places.
Test system: Acinetobacter baumannii ATCC17961
Assay: Antimicrobial susceptibility testing: 90% growth inhibitory concentration (IC90) determination
Format: cell-based
Details: 90% growth inhibitory concentration against Acinetobacter baumannii ATCC17961, Iso-Sensitest broth, OD 600 nm over 16 h, read-out: ATCC 17961 IC90
Procedure, shortened: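 OD600 monitored each minute over 16 h at 35±2° C for bacteria (~5×10^5 CFU/mL final) in Iso-Sensitest medium with 10-point twofold compound series (e.g. 10-0.0195 μM final). Concentration giving 90% growth inhibition in log phase reported as IC90.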

[1] = Acinetobacter baumannii, ATCC17961, 16 h

| Compound | IC90 [1] | IC90 |
| --- | --- | --- |
| Cn1c(-c2cn(-c3ccc4c(ccn4CC#N)n3)nc2C(F)(F)F)cnc1C(=O)Nc1ccc(C(=O)N2CCN(C(=O)[C@H]3CC[N@+](CC(=O)O)(CC4CNC4)CC3)CC2)c(Cl)c1 [Example 197, cis-2-[1-(azetidin-3-ylmethyl)-4-[4-[2-chloro-4-[[5-[1-[1-(cyanomethyl)pyrrolo[3,2-b]pyridin-5-yl]-3-(trifluoromethyl)pyrazol-4-yl]-1-methyl-imidazole-2-carbonyl]amino]benzoyl]piperazine-1-carbonyl]piperidin-1-ium-1-yl]acetic acid. 1:1 2,2,2-trifluoroacetate] | 0.171 µM |  |
| Cn1c(-c2cn(-c3ccc4c(ccn4CCO)n3)nc2C(F)(F)F)cnc1C(=O)Nc1ccc(C(=O)N2CCN(C(=O)[C@H]3CC[N@+](CC(=O)O)(CC4CNC4)CC3)CC2)c(Cl)c1 [Example 198, cis-2-[1-(azetidin-3-ylmethyl)-4-[4-[2-chloro-4-[[5-[1-[1-(2-hydroxyethyl)pyrrolo[3,2-b]pyridin-5-yl]-3-(trifluoromethyl)pyrazol-4-yl]-1-methyl-imidazole-2-carbonyl]amino]benzoyl]piperazine-1-carbonyl]piperidin-1-ium-1-yl]acetic acid. 1:1 2,2,2-trifluoroacetate] | 0.37 µM |  |
| Cn1c(-c2cn(-c3ccc4c(ccn4CC(N)=O)n3)nc2C(F)(F)F)cnc1C(=O)Nc1ccc(C(=O)N2CCN(C(=O)C3CC[N+](CC(=O)O)(CC4CNC4)CC3)CC2)c(Cl)c1 (stereo not drawn) [Example 199, cis-2-[4-[4-[4-[[5-[1-[1-(2-amino-2-keto-ethyl)pyrrolo[3,2-b]pyridin-5-yl]-3-(trifluoromethyl)pyrazol-4-yl]-1-methyl-imidazole-2-carbonyl]amino]-2-chloro-benzoyl]piperazine-1-carbonyl]-1-(azetidin-3-ylmethyl)piperidin-1-ium-1-yl]acetic acid. 1:1 2,2,2-trifluoroacetate] |  | 0.308 µM |
| Cn1c(-c2cn(-c3cc4cc[nH]c4cn3)nc2C(F)(F)F)cnc1C(=O)Nc1ccc(C(=O)N2CCN(C(=O)[C@H]3CC[N@+](CC(=O)O)(CC4CNC4)CC3)CC2)c(Cl)c1 [Example 200, cis-2-[1-(azetidin-3-ylmethyl)-4-[4-[2-chloro-4-[[1-methyl-5-[1-(1H-pyrrolo[2,3-c]pyridin-5-yl)-3-(trifluoromethyl)pyrazol-4-yl]imidazole-2-carbonyl]amino]benzoyl]piperazine-1-carbonyl]piperidin-1-ium-1-yl]acetic acid. 1:1 2,2,2-trifluoroacetate] | 0.4 µM |  |
| cis-2-[4-[4-[4-[[5-[1-(4-Amino-2-fluoro-phenyl)-3-(difluoromethyl) pyrazol-4-yl]-1-methyl-imidazole-2-carbonyl]amino]-2-chloro-benzoyl]piperazine-1-carbonyl]-1-(azetidin-3-ylmethyl)piperidin-1-ium-1-yl]acetic Acid;2,2,2-trifluoroacetate [Example 128] |  | 0.358 µM |

Further lines, with some results ahead:

| IC90 [1] | Compound | IC90 |
| --- | --- | --- |
| 0.682 µM | Cn1c(-c2cn(-c3ccc(NCCN)cn3)nc2C(F)(F)F)cnc1C(=O)Nc1ccc(C(=O)N2CCN(C(=O)C3CC[N+](C)(CC(=O)[O-])CC3)CC2)c(Cl)c1 (stereo not shown) [Example 201, 2-[4-[4-[4-[[5-[1-[5-(2-aminoethylamino)-2-pyridyl]-3-(trifluoromethyl)pyrazol-4-yl]-1-methyl-imidazole-2-carbonyl]amino]-2-chloro-benzoyl]piperazine-1-carbonyl]-1-methyl-piperidin-1-ium-1-yl]acetate] |  |
| 0.231 µM | Cn1c(-c2cn(-c3ccc(N4CC[C@H](N)C4)cn3)nc2C(F)(F)F)cnc1C(=O)Nc1ccc(C(=O)N2CCN(C(=O)[C@H]3CC[N@+](CC(=O)O)(CC4CNC4)CC3)CC2)c(Cl)c1 [Example 202, cis-2-[4-[4-[4-[[5-[1-[5-[(3S)-3-aminopyrrolidin-1-yl]-2-pyridyl]-3-(trifluoromethyl)pyrazol-4-yl]-1-methyl-imidazole-2-carbonyl]amino]-2-chloro-benzoyl]piperazine-1-carbonyl]-1-(azetidin-3-ylmethyl)piperidin-1-ium-1-yl]acetic acid;formate] |  |

— patent publication US20250179066A1, “ZWITTERIONIC ANTIBACTERIAL COMPOUNDS” (Hoffmann-La Roche Inc., priority 2022, published 2025)
